Columns and labels:
[1] = test system: Ba/F3 cells expressing EGFR Del19/C797S (EGFR DC); assay: Inhibition of proliferation of Ba/F3 cells expressing EGFR Del19/C797S (CellTiter-Glo, 72 h); format: cell-based; conditions: Mus musculus, BaF3, 72 hours treatment
[2] = test system: Ba/F3 cells expressing EGFR L858R/C797S (EGFR LC); assay: Inhibition of proliferation of Ba/F3 cells expressing EGFR L858R/C797S (CellTiter-Glo, 72 h); format: cell-based; conditions: Mus musculus, BaF3, 72 hours treatment
Protocol: The following experiment was performed to evaluate the inhibitory activity of the compounds according to the present invention on the proliferation of Ba/F3 cells expressing EGFR Del19/C797S (EGFR DC) and EGFR L858R/C797S (EGFR LC) mutations.
Ba/F3 cells were cultured using medium (RPMI-1640) containing 10% fetal bovine serum (FBS) and 5 ng/ml IL-3 (R&D Systems). The transduced Ba/F3 cells were cultured by adding 1 μg/ml puromycin (Invitrogen) to the same medium.
24 hours prior to treatment with compounds, 3,000 to 5,000 cells were seeded on a well plate (white clear bottom 96 well plate, Corning). The compounds were diluted in dimethyl sulfoxide (3-fold dilution, total of 12 concentrations) and injected at 1 μl each so that the final concentration was 0.2 nM to 5 μM. After 72 hours post treatment with compounds, living cells were stored at room temperature for 10 minutes using CellTiter-Glo luminescent cell-viability reagent (Promega), and the luminescence intensity thereof was measured using a reader (Synergy Neo, Biotek). Each test was repeated three times. The result values were calculated as a cell growth rate (%) compared to the control group. A graph was created using the GraphPad Prism version 8.3.0 program, and GI50 values were calculated.

SMILES | GI50 [1] [nM] | GI50 [2] [nM]
COc1cc(N2CCC3(CC2)CC3(F)F)c(-c2cnn(C)c2)cc1Nc1cc(N2OCC[C@@H]2c2cccc(F)c2F)ncn1 [Example 32, (R)-N-(4-(1,1-difluoro-6-azaspiro[2.5]octan-6-yl)-2-methoxy-5-(1-methyl-1H-pyrazol-4-yl)phenyl)-6-(3-(2,3-difluorophenyl)isoxazolidin-2-yl)pyrimidin-4-amine] | 100 to 1000 | 100 to 1000
COc1cc(N2CCC3(CC2)CC(OC)C3)c(-c2cnn(C)c2)cc1Nc1cc(N2OCC[C@@H]2c2cccc(F)c2F)ncn1 [Example 30, (R)-6-(3-(2,3-difluorophenyl)isoxazolidin-2-yl)-N-(2-methoxy-4-(2-methoxy-7-azaspiro[3.5]nonan-7-yl)-5-(1-methyl-1H-pyrazol-4-yl)phenyl)pyrimidin-4-amine] | < 100 | < 100
COc1cc(N2CCC3C(C2)C3(F)F)c(-c2cnn(C)c2)cc1Nc1cc(N2OCC[C@@H]2c2cccc(F)c2F)ncn1 (stereo partly drawn) [Example 41, N-(4-(7,7-difluoro-3-azabicyclo[4.1.0]heptan-3-yl)-2-methoxy-5-(1-methyl-1H-pyrazol-4-yl)phenyl)-6-((R)-3-(2,3-difluorophenyl)isoxazolidin-2-yl)pyrimidin-4-amine] | 100 to 1000 | 100 to 1000
COc1cc(N2CCC3(CCN(CCF)CC3)CC2)c(-c2cnn(C)c2)cc1Nc1cc(N2OCC[C@@H]2c2cccc(F)c2F)ncn1 [Example 50, (R)-6-(3-(2,3-difluorophenyl)isoxazolidin-2-yl)-N-(4-(9-(2-fluoroethyl)-3,9-diazaspiro[5.5]undecan-3-yl)-2-methoxy-5-(1-methyl-1H-pyrazol-4-yl)phenyl)pyrimidin-4-amine] | < 100 | < 100
COc1cc(N2CCC3(CCOCC3)CC2)c(-c2cnn(C)c2)cc1Nc1cc(N2OCC[C@@H]2c2cccc(F)c2F)ncn1 [Example 28, (R)-6-(3-(2,3-difluorophenyl)isoxazolidin-2-yl)-N-(2-methoxy-5-(1-methyl-1H-pyrazol-4-yl)-4-(3-oxa-9-azaspiro[5.5]undecan-9-yl)phenyl)pyrimidin-4-amine] | < 100 | < 100
COc1cc(N2CCC3(CC2)CCN(C(C)(C)CF)CC3)c(-c2cn(C)nc2F)cc1Nc1cc(N2OCC[C@@H]2c2cccc(F)c2F)ncn1 [Example 1, (R)-6-(3-(2,3-difluorophenyl)isoxazolidin-2-yl)-N-(5-(3-fluoro-1-methyl-1H-pyrazol-4-yl)-4-(9-(1-fluoro-2-methylpropan-2-yl)-3,9-diazaspiro[5.5]undecan-3-yl)-2-methoxyphenyl)pyrimidin-4-amine] | < 100 | < 100
COc1cc(N2CCC3(CC2)CCN(C(C)(C)CF)CC3)c(-c2cnn(C)c2)cc1Nc1cc(N2OCC[C@@H]2c2ccccc2)ncn1 [Example 10, (R)-N-(4-(9-(1-fluoro-2-methylpropan-2-yl)-3,9-diazaspiro[5.5]undecan-3-yl)-2-methoxy-5-(1-methyl-1H-pyrazol-4-yl)phenyl)-6-(3-phenylisoxazolidin-2-yl)pyrimidin-4-amine] | < 100 | < 100
COc1cc(N2CC3(CCN(C(C)(C)CF)CC3)C2)c(-c2cnn(C)c2)cc1Nc1cc(N2OCC[C@@H]2c2cccc(F)c2F)ncn1 [Example 14, (R)-6-(3-(2,3-difluorophenyl)isoxazolidin-2-yl)-N-(4-(7-(1-fluoro-2-methylpropan-2-yl)-2,7-diazaspiro[3.5]nonan-2-yl)-2-methoxy-5-(1-methyl-1H-pyrazol-4-yl)phenyl)pyrimidin-4-amine] | < 100 | < 100

From patent US20250368635A1, “HETEROARYL DERIVATIVE COMPOUND, AND USES THEREOF” (VORONOI, INC., priority 2022, published 2025)
